This note sets out measurements from paper PMC5996997 (Journal of medicinal chemistry, 2017).

“Also recorded” adds a separate entry of the source.

Series [1] has as its target T1, PDK2 (Homo sapiens, UniProt Q15119). Kind of series: Isothermal titration calorimetry. The note with it: ITC, binding to PDK2. A general note: Isothermal titration calorimetry measures the heat released or taken up as one component is titrated into another.
The subject of series [2] is diet-induced obese (DIO) mice. Kind of series: Oil Red O stain of liver slices. In kind it is in vivo, C57BL/6J male mice (DIO). The note with it: 40–45 mg/kg/day by mini pumps, two weeks.
The test system of the next series is PDC activity. As to the kind of experiment: PDC activity in tissues of treated diet-induced obese mice. It is filed as in vivo, C57BL/6J male mice (DIO). The conditions noted are these: DIO mice, 40–45 mg/kg/day by osmotic mini-pumps, two weeks.
The target in series [3] is T1, PDK2.
In series [4] the test system is phosphorylated E1α subunit (pE1). Kind of series: Western blot of phosphorylated E1α in liver homogenates of treated DIO mice. In kind it is in vivo, C57BL/6J male mice (DIO). The note with it: 40–45 mg/kg/day by osmotic mini-pumps, two weeks. In general terms: In western blotting, separated proteins are transferred to a membrane and probed.
The subject of series [5] is diet-induced obese (DIO) mice. Kind of series: Glucose tolerance test in DIO mice. It is filed as in vivo, C57BL/6J male mice (DIO). The note with it: 40–45 mg/kg/day, two weeks, p <0.05 at 20, 30, 60 and 120 min.
For series [6] the following is noted: 17 at 30 mg/kg vs 2 at 70 mg/kg IP.

Take `O=S(=O)(c1ccc(O)cc1O)N1Cc2ccc(NC3CCNCC3)cc2C1` [Compound 5, 4-((5-(piperidin-4-ylamino)isoindolin-2-yl)sulfonyl)benzene-1,3-diol]: the “–TΔS” value on PDK2 [1] is given as 4.64 kcal/mol.
Still for that read-out and setting: next, `O=S(=O)(c1ccc(O)cc1O)N1Cc2cc(O)cc(O)c2C1` [Compound 2, 2-((2,4-dihydroxyphenyl)sulfonyl)isoindoline-4,6-diol]: 6.57 kcal/mol.
Take `NC(=O)C[C@H](N)C(=O)N1CCC(Nc2ccc3c(c2)CN(S(=O)(=O)c2ccc(O)cc2O)C3)CC1` [Compound 17, (S)-3-amino-4-(4-((2-((2,4-dihydroxyphenyl)sulfonyl)isoindolin-5-yl)amino)piperidin-1-yl)-4-oxobutanamide]: the “hepatic fat / steatosis (Oil Red O)” value in series [2] is on record as “drastically reduced hepatic steatosis; also recorded: microvesicular”. In the series on PDC activity, the “PDC activation in heart and muscle” value is “no PDC activation”; the “increase of PDC activity in liver compared to the vehicle control” value is “about 6 fold”. For the same compound, the “fold lower IC50 than 2” value at PDK2 [3] (PDK2, relative to 2) is ~ 8 fold. Moreover, the “fold better IC50 than 5” value on PDK2 [3] (PDK2, relative to 5) amounted to 3.4 fold. For the same compound, the “phosphorylation of the E1α subunit (pE1) in the liver homogenate” value in series [4] was “decreased phosphorylation”. In addition, at PDK2 [1], the “gain in enthalpy change (ΔH) compared to 5” value turned out to be 3.4 kcal/mol and the “loss in entropy compared to 5” value is 2.7 kcal/mol. The “glucose tolerance over vehicle-treated mice” value in series [5] is reported as “increases glucose tolerance”. For the same compound, in series [6], the “fold higher AUClast in liver than 2” value is reported as greater than 10 fold, the “fold lower AUClast in muscle than 2” value is greater than 10 fold and the “fold slower unit-time clearance (CL/F) in liver than 2” value is reported as greater than 30 fold.
With `O=S(=O)(c1ccc(O)cc1O)N1Cc2ccc(O)cc2C1` [Compound 1, 4-((5-hydroxyisoindolin-2-yl)sulfonyl)benzene-1,3-diol], the “–TΔS” value on PDK2 [1] was determined as 5.54 kcal/mol.
Consider `Nc1ccc2c(c1)CN(S(=O)(=O)c1ccc(O)cc1O)C2` [Compound 3], for which the “fold higher IC50 than 1” value on PDK2 [3] (PDK2, relative to 1) worked out at 2 fold.
